# According to patent US20250221966A1, “RXFP1 AGONISTS” (BRISTOL-MYERS SQUIBB COMPANY, priority 2021, published 2025):
# Molecular target: T1, human RXFP1 (Homo sapiens, UniProt Q9HBX9)
# T1 construct: expressed in transfected cells
# T1 sequence (Q9HBX9 1-757): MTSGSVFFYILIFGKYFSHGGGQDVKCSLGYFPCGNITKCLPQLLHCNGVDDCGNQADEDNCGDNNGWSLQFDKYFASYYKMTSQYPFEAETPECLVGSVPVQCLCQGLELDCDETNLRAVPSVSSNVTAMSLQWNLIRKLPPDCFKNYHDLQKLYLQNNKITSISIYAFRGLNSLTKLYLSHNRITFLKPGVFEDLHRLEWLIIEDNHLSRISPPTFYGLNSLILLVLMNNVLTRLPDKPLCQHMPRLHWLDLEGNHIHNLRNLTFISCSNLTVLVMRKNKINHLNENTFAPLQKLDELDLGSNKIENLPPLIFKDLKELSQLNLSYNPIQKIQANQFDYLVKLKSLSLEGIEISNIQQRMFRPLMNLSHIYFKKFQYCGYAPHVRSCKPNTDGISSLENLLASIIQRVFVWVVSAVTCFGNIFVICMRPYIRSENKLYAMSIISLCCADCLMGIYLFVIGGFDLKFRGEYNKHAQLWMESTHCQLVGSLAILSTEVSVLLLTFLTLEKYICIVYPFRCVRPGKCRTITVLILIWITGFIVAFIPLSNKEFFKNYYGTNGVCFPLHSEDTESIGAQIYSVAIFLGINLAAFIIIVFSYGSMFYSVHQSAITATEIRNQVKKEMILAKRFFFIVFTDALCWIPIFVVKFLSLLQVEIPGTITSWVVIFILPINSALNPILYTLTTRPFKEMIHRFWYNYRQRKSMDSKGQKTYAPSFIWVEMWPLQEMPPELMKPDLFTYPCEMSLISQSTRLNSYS
# Test: RXFP1 cAMP assay (hRXFP1 HEK293 cAMP assay, HTRF)
# Assay type: cell-based
# Conditions: HEK293 cells stably expressing human RXFP1, 30 min at room temperature, read-out: cAMP hRXFP1 HEK293 Assay EC50
# Description: RXFP1 Cyclic Adenosine Monophosphate (cAMP) Assays. […] Cells were dissociated and suspended in assay buffer. The assay buffer was HBSS buffer (with calcium and magnesium) containing 20 mM HEPES, 0.05% BSA, and 0.5 mM IBMX. Cells (3000 cells per well, except 1500 cell per well for HEK293 cells stably expressing human RXFP1) were added to 384-well Proxiplates (Perkin-Elmer). Cells were immediately treated with test compounds in DMSO (2% final) at final concentrations in the range of 0.010 nM to 50 μM. Cells were incubated for 30 min at room temperature. The level of intracellular cAMP was determined using the HTRF HiRange cAMP assay reagent kit (Cisbio) according to manufacturer's instructions. Solutions of cryptate conjugated anti-cAMP and d2 fluorophore-labelled cAMP were made in a supplied lysis buffer separately. Upon completion of the reaction, the cells were lysed with equal volume of the d2-cAMP solution and anti-cAMP solution. […] The potency and activity of a compound to […] cAMP production was then determined by fitting to a 4-parametric logistic equation from a plot of cAMP level versus compound concentrations.
row,SMILES,EC50 [nM]
1,CCCC/C=C1\C2CCC1[C@H](C(=O)Nc1ccc(F)c(C(F)(F)F)c1)[C@@H]2NC(=O)c1cc(C2=NOC(CO)C2)ccc1OC (stereo partly shown) [compound 383],127
2,COc1ccc(N2CC[C@H](O)C2=O)cc1C(=O)N[C@H]1[C@@H](C(=O)Nc2ccc(F)c(C(F)(F)F)c2)[C@H]2CC[C@@H]1/C2=C\C1CC1 [compound 627],176
3,COc1cc(C)c(C2=NOC3COCC23)cc1C(=O)N[C@H]1[C@@H](C(=O)Nc2ccc(F)c(C(F)(F)F)c2)[C@H]2CC[C@@H]1/C2=C\C1CC1 (stereo partly shown) [compound 532],22.9
4,COc1cc(F)c(F)cc1C(=O)N[C@@H]1C2CCC([C@@H]1C(=O)Nc1ccc(F)c(C(F)(F)F)c1)C21OCCO1 (stereo partly shown) [Example 147],1800
5,COc1ccc(C2=NOC3CC(C(O)C(F)(F)F)CC23)cc1C(=O)N[C@H]1[C@@H](C(=O)Nc2ccc(F)c(C(F)(F)F)c2)[C@H]2CC[C@@H]1/C2=C\C1CC1 (stereo partly shown) [compound 848],2.5
6,COc1ccc(-c2cc([C@H](O)C(F)(F)F)ccc2F)cc1C(=O)NC1C2CCC(/C2=C/C2CC(F)(F)C2)C1C(=O)Nc1ccc(F)c(C(F)(F)F)c1 (stereo partly shown) [compound 358],18
7,COc1ccc(C2=NOC3CC(CO)CC23)cc1C(=O)N[C@H]1[C@@H](C(=O)Nc2ccc(F)c(C(F)(F)F)c2)[C@H]2CC[C@@H]1/C2=C\C(C)C (stereo partly shown) [compound 454],1.9
8,COCc1ccccc1CNC(=O)[C@@H]1[C@H](NC(=O)c2cc(C3=NOC4COCC34)ccc2OC)[C@@H]2CC[C@H]1/C2=C/C1CC1 (stereo partly shown) [compound 641],217
9,"COc1ccc(-c2cc(C(OC(=O)Nc3ccccc3)C(F)(F)F)ccc2F)cc1C(=O)N[C@@H]1C2CCC(/C2=C/C2CC2)[C@@H]1C(=O)Nc1ccc(F)c(C(F)(F)F)c1 (single isomer, unassigned) [compound 229]",7
10,COC(=O)C(NC(=O)C1CCOCC1)c1ccc(F)c(-c2ccc(OC)c(C(=O)N[C@@H]3C4CCC(/C4=C/C(F)(F)F)[C@@H]3C(=O)Nc3ccc(F)c(C(F)(F)F)c3)c2)c1 (stereo partly shown) [compound 247],73
11,COc1ccc(N2CCCC(C(=O)O)C2)cc1C(=O)N[C@@H]1C2CCC(/C2=C/c2ccccc2)[C@@H]1C(=O)Nc1ccc(F)c(C(F)(F)F)c1 (stereo partly shown) [Example 136],270
12,COc1cc(F)c(F)cc1C(=O)N[C@@H]1C2CCC(/C2=C/C(=O)Nc2ccccc2)[C@@H]1C(=O)Nc1ccc(F)c(C(F)(F)F)c1 (stereo partly shown) [Example 34],4600
13,COc1ccc(-c2ccn(CC(=O)O)n2)cc1C(=O)N[C@@H]1C2CCC(/C2=C/C(F)(F)F)[C@@H]1C(=O)Nc1ccc(F)c(C(F)(F)F)c1 (stereo partly shown) [compound 342],390
14,COc1ccc(C2=NOC3COCC23)cc1C(=O)N[C@H]1[C@@H](C(=O)NCc2ccccc2C)[C@H]2CC[C@@H]1/C2=C\C1CC1 (stereo partly shown) [compound 585],78.3
15,COc1ccc(C2CCCN2C(=O)CCO)cc1C(=O)N[C@@H]1C2CCC(C2=CC2CC2)[C@@H]1C(=O)Nc1ccc(F)c(C(F)(F)F)c1 (stereo partly shown) [compound 667],384
16,COc1ccc(-c2cc([C@H](OC(=O)NC3CCC3)C(F)(F)F)ccc2F)cc1C(=O)N[C@@H]1C2CCC(/C2=C/C2CCC2)[C@@H]1C(=O)Nc1ccc(F)c(C(F)(F)F)c1 (stereo partly shown) [compound 924],5.7
17,"COc1ccc(C23COC(C(=O)O)(C2)C3)cc1C(=O)N[C@H]1[C@@H](C(=O)Nc2ccc(F)c(C(F)(F)F)c2)[C@H]2CC[C@@H]1/C2=C\C(F)(F)F [Example 724, 4-(3-(((1R,2R,3S,4R,Z)-3-((4-fluoro-3-(trifluoromethyl)phenyl)carbamoyl)-7-(2,2,2-trifluoroethylidene)bicyclo[2.2.1]heptan-2-yl)carbamoyl)-4-methoxyphenyl)-2-oxabicyclo[2.1.1]hexane-1-carboxylic acid]",5000
18,COc1ccc(N2CC(CO)CC2=O)cc1C(=O)N[C@H]1[C@@H](C(=O)Nc2ccc(F)c(C(F)(F)F)c2)[C@H]2CC[C@@H]1/C2=C\C1CC1 (stereo partly shown) [compound 526],22.4
19,COc1cc(F)c(F)cc1C(=O)N[C@@H]1C2CCC(/C2=C/c2cccc(Cc3ccccc3)c2)[C@@H]1C(=O)Nc1ccc(F)c(C(F)(F)F)c1 (stereo partly shown) [compound 49],200
20,COc1ccc(C2=NOC(CC(=O)O)C2)cc1C(=O)N[C@@H]1C2CCC(/C2=C/C2CCC2)[C@@H]1C(=O)Nc1ccc(F)c(C(F)(F)F)c1 (stereo partly shown) [compound 393],73
21,"COc1ccc(N2CCCC(CO)C2)cc1C(=O)N[C@@H]1C2CCC(/C2=C/C2CC2)[C@@H]1C(=O)Nc1ccc(F)c(C(F)(F)F)c1 (single isomer, unassigned) [compound 705]",1300
22,"COc1ccc(C2=NOC3C(O)CC(O)C23)cc1C(=O)N[C@H]1[C@@H](C(=O)Nc2ccc(F)c(C(F)(F)F)c2)[C@H]2CC[C@@H]1/C2=C\C1CC1 (stereo partly drawn) [Example 413, (1R,2S,3R,4R,Z)-7-(cyclopropylmethylene)-3-(5-(4,6-dihydroxy-3a,5,6,6a-tetrahydro-4H-cyclopenta[d]isoxazol-3-yl)-2-methoxybenzamido)-N-(4-fluoro-3-(trifluoromethyl)phenyl)bicyclo[2.2.1]heptane-2-carboxamide]",39
23,COc1c(F)cc(C2=NOC3CC(CO)CC23)cc1C(=O)N[C@H]1[C@@H](C(=O)NCC(C)(C)C)[C@H]2CC[C@@H]1/C2=C\C1CC1 (stereo partly shown) [compound 765],2.5

# Further lines, results first:
row,EC50 [nM],SMILES
1,2,COc1ccc(-c2cc(C(OC(=O)Nc3ccccc3F)C(F)(F)F)ccc2F)cc1C(=O)N[C@@H]1C2CCC(/C2=C/C2CC2)[C@@H]1C(=O)Nc1ccc(F)c(C(F)(F)F)c1 (stereo partly shown) [compound 223]
2,5,COc1ccc(-c2ccnc3c2ncn3CC(=O)O)cc1C(=O)N[C@@H]1C2CCC(/C2=C/C(F)(F)F)[C@@H]1C(=O)Nc1ccc(F)c(C(F)(F)F)c1 (stereo partly shown) [compound 314]
3,7,COc1ccc(-c2cccc(CC(F)(F)F)c2)cc1C(=O)N[C@@H]1C2CCC(/C2=C/C2CC2)[C@@H]1C(=O)Nc1ccc(F)c(C(F)(F)F)c1 (stereo partly shown) [compound 287]
4,230,COc1cc(F)c(F)cc1C(=O)N[C@@H]1C2CCC(/C2=C/Br)[C@@H]1C(=O)Nc1ccc(F)c(C(F)(F)F)c1 (stereo partly shown) [Example 11]
5,9,COc1ccc(N2CCCCS2(=O)=O)cc1C(=O)N[C@@H]1C2CCC(/C2=C/C2CC2)[C@@H]1C(=O)Nc1ccc(F)c(C(F)(F)F)c1 (stereo partly shown) [compound 373]
6,29.4,COc1ccc(C2=NOC3COCC23)cc1C(=O)N[C@H]1[C@@H](C(=O)NCc2c(C)cccc2C)[C@H]2CC[C@@H]1/C2=C\C1CC1 (stereo partly shown) [compound 540]
7,4.9,COc1ccc(C2=NOC3COCC23)cc1C(=O)N[C@H]1[C@@H](C(=O)Nc2ccc(F)c(C(F)(F)F)c2)[C@H]2CC[C@@H]1/C2=C\c1csc(C)n1 (stereo partly shown) [compound 806]
8,2040,COc1ccc(-c2cc(C(=O)O)ccc2F)cc1C(=O)N[C@@H]1C2CCC(/C2=C/c2cn(C)nn2)[C@@H]1C(=O)Nc1ccc(F)c(C(F)(F)F)c1 (stereo partly shown) [compound 327]
9,210,COc1cc(F)c(F)cc1C(=O)N[C@@H]1C2CCC(/C2=C/c2cccs2)[C@@H]1C(=O)Nc1ccc(F)c(C(F)(F)F)c1 (stereo partly shown) [compound 124]
10,104,CCCC/C=C1\C2CCC1[C@H](C(=O)Nc1ccc(F)c(C(F)(F)F)c1)[C@@H]2NC(=O)c1cc(C2=NOC(CC(=O)O)C2)ccc1OC (stereo partly shown) [compound 395]
11,17,"COc1cc(F)c(C2=NOC3COCC23)cc1C(=O)N[C@H]1[C@@H](C(=O)Nc2ccc(F)c(C(F)(F)F)c2)[C@H]2CC[C@@H]1/C2=C\C1CC1 (stereo partly drawn) [Example 419, (1R,2S,3R,4R,Z)-7-(cyclopropylmethylene)-3-(4-fluoro-2-methoxy-5-(3a,4,6,6a-tetrahydrofuro[3,4-d]isoxazol-3-yl)benzamido)-N-(4-fluoro-3-(trifluoromethyl)phenyl)bicyclo[2.2.1]heptane-2-carboxamide]"
12,6.5,COc1ccc(C2=NOC3CC(CO)CC23)cc1C(=O)N[C@H]1[C@@H](C(=O)Nc2ccc(F)c(C(F)(F)F)c2)[C@H]2CC[C@@H]1/C2=C\C(F)(F)F (stereo partly shown) [compound 478]
13,5.3,COc1ccc(-c2cc(S(=O)(=O)NC(C)(C)C)ccc2F)cc1C(=O)N[C@H]1[C@@H](C(=O)N[C@H](C)C2(C)CC2)[C@H]2CC[C@@H]1/C2=C\C1CC1 [compound 957]
14,1030,COc1ccc(C2=NC[C@H]3CCCN23)cc1C(=O)N[C@H]1[C@@H](C(=O)Nc2ccc(F)c(C(F)(F)F)c2)[C@H]2CC[C@@H]1/C2=C\C1CC1 [Example 699]
